Here are results for six compounds from US6756380B1, “5-phenyl-pyrimidine derivatives” (Hoffmann-La Roche Inc., priority 1999, dated 2004).

Structures are written as SMILES. Where a name gives a salt, the structure may show the parent alone.

T1 sequence (P25103 whole entry): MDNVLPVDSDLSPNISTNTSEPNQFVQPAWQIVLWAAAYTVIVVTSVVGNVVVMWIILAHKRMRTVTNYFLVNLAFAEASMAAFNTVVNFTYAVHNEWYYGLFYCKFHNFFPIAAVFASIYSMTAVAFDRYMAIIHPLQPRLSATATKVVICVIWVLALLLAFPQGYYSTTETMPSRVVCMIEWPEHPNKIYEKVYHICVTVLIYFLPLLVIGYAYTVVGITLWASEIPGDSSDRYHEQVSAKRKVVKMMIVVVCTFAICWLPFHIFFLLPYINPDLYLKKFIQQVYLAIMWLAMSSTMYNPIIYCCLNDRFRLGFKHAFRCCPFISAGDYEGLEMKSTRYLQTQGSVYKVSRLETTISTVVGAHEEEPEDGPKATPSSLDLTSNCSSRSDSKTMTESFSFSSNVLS

One data set addresses T1, human NK1 receptor (Homo sapiens, UniProt P25103).
T1 construct: expressed in transfected cells; host or cells: CHO cells infected with Semliki virus expression system; membrane suspension
Nature of the data set: NK1 receptor binding assay, displacement of [3H]substance P. The conditions noted are these: [3H]substance P (0.6 nM) displacement; CHO cells infected with the human NK1 receptor (Semliki virus expression system); 60 min at room temperature; read-out: affinity to the NK-1 receptor, given as pKi (converted). The protocol: The affinity of test compounds for the NK, receptor was evaluated at human NK, receptors in CHO cells infected with the human NK1 receptor (using the Semliki virus expression system) and radiolabelled with [^3H]substance P (final concentration 0.6 nM). Binding assays were performed in HEPES buffer (50 mM, pH 7.4) containing BSA (0.04 %) leupeptin (8 μg/ml), MnCl2 (3mM) and phosphoramidon (2 μM). Binding assays consisted of 250 μl of membrane suspension (1.25×10^5 cells/assay tube), […] of buffer of displacing agent and 125 μl of [^3H]substance P. Displacement curves were determined with at least seven concentrations of the compound. The assay tubes were incubated for 60 min at room temperature after which time the tube contents were rapidly filtered under vacuum through GF/C filters presoaked for 60 min with PEI (0.3%) with 2×2 ml washed of HEPES buffer (50 mM, pH 7.4). The radioactivity retained on the filters was measured by scintillation counting. All assays were performed in triplicate in at least 2 separate experiments.
As to `CN1CCN(c2ncc(-c3ccccc3Cl)c(C(=O)N(C)Cc3cc(C(F)(F)F)cc(C(F)(F)F)c3)n2)CC1` [Example 13, 5-(2-Chloro-phenyl)-2-(4-methyl-piperazin-1-yl)-pyrimidine-4-carboxylic acid (3,5-bis-trifluoromethyl-benzyl)-methyl-amide], the Ki is 6.17 nM.

On to `Cc1ccccc1-c1cnc(OCCN(C)C)nc1C(=O)N(C)Cc1cc(C(F)(F)F)cc(C(F)(F)F)c1` [Example 21, 2-(2-Dimethylamino-ethoxy)-5-o-tolyl-pyrimidine-4-carboxylic acid (3,5-bis-trifluoromethyl-benzyl)-methyl-amide], for which the Ki is 2.19 nM.

As for `CN1CCN(c2ncc(-c3cccc4ccccc34)c(C(=O)N(C)Cc3cc(C(F)(F)F)cc(C(F)(F)F)c3)n2)CC1` [Example 25, 2-(4-Methyl-piperazin-1-yl)-5-naphthalen-1-yl-pyrimidine-4-carboxylic acid (3,5-bis-trifluoromethyl-benzyl)-methyl-amide], the Ki is 3.72 nM.

With `Cc1cc(F)ccc1-c1cnc(NCCN(C)C)nc1C(=O)N(C)Cc1cc(C(F)(F)F)cc(C(F)(F)F)c1` [Example 54, 2-(2-Dimethylamino-ethylamino)-5-(4-fluoro-2-methyl-phenyl)-pyrimidine-4-carboxylic acid (3,5-bis-trifluoromethyl-benzyl)-methyl-amide], the Ki was 1.45 nM.

Take `Cc1ccccc1-c1cnc(OCCN(C)C)nc1N(C)C(=O)C(C)(C)c1cc(C(F)(F)F)cc(C(F)(F)F)c1` [Example 79, 2-(3,5-Bis-trifluoromethyl-phenyl)-N-[2-(2-dimethylamino-ethoxy)-5-o-tolyl-pyrimidin-4-yl]-N-methyl-isobutyramide]: the Ki was 0.661 nM.

Test system in another data set: not given
Test: not given
Conditions: not given
One may read the melting point as the temperature of the solid-liquid transition. In turn, `Cc1ccccc1-c1cnc(OCCN(C)C)nc1C(=O)N(C)Cc1cc(C(F)(F)F)cc(C(F)(F)F)c1` (as salt: hydrochloride) [Example 21, 2-(2-Dimethylamino-ethoxy)-5-o-tolyl-pyrimidine-4-carboxylic acid (3,5-bis-trifluoromethyl-benzyl)-methyl-amide] came in with a melting point of 147 to 149 °C.
